Measurements from US10105365B2, “Solid antiviral dosage forms” (AbbVie Inc., priority 2014, dated 2018).
Where two headings read alike, the source gives them in different places.

How the values were obtained:
[1] = Human pharmacokinetic study, Example 5 Arm I (single dose, replicated crossover); type: in vivo; details: single dose, non-fasting
Procedure: (§1) A Phase 1, non-fasting, open-label, two-arm, four-period, randomized, crossover study was conducted to compare and characterize the pharmacokinetics of (i) Triple Tablet when co-administered with Single Tablet, and (ii) Formulation C5-12 as discussed below. Part 1 was a single dose, two-treatment, randomized, four period, two sequence replicated crossover study with 88 subjects. Doses in the four periods were separated by at least 10 days. Part 2 was a multiple-dose, two-treatment, two period, randomized crossover study with 66 subjects. Dosing in each period was 14 days and doses in the two periods were separated by at least 10 days.
(§2) Adult male and female subjects in general good health were selected to participate in the study according to the selection criteria. Subjects meeting the selection criteria were randomly assigned to one of the sequences of Regimens A and B (four sequences for Arm I and two sequences for Arm II) as shown below in Table 5-A.
(§3) Study drug was administered as provided below in Table 5-B.
(§4) Each study regimen was taken orally with approximately 240 mL of water approximately 30 minutes after the start of standardized breakfast. Study regimens were administered orally in the morning on Study Day 1 of each period. Serial blood samples for pharmacokinetic analysis were collected 72 hours after dosing in each period.
Tables 5-C, 5-D, 5-E, and 5-F below report the Arm I pharmacokinetic data for Formulation C5-12 (separately reported for each of Compounds 1, 2, 3, and 4). Table 5-G presents the results of a relative bioavailability and 90% confidence interval analysis of the pharmacokinetic data for Formulation C5-12 relative to the reference regimen. The data presented in Tables 5-C through 5-G are preliminary data and are subject to database lock and final data verification by the statistician.

[2] = Human pharmacokinetic study, Example 5 Arm II (multiple dose, crossover); type: in vivo; details: in vivo
Procedure: as §1, §2, §3, §4

[3] = Human pharmacokinetic study, Example 4 Arm II (single dose, crossover); type: in vivo; details: human, in vivo
Procedure: Formulation C5-12 and a second formulation were tested in Arm II of the study. Adult male and female subjects (N=30 for combined Arm I and Arm II studies) in general good health were selected to participate in the study according to the selection criteria. Subjects meeting the selection criteria were randomly assigned to one of the Regimen sequences as shown below in Table 4-A.
Study drug was administered as provided below in Table 4-B.
Each study regimen was taken orally with approximately 240 mL of water approximately 30 minutes after the start of standardized breakfast. Study regimens were administered orally in the morning on Study Day 1 of each period. For Regimen A the evening dose of the Single Tablet was taken orally with approximately 240 mL of water approximately 30 minutes after the start of the evening snack. Serial blood samples for pharmacokinetic analysis were collected 72 hours after dosing in each period.
The data presented in Tables 4-C through 4-G are preliminary data and are subject to database lock and final data verification.

[4] = Sink Conditions dissolution testing of Formulation C5-12; type: physicochemical; details: N = 6
Procedure: The release profiles of Formulation C5-12 of Example 1 were evaluated in a Sink Conditions dissolution study. The study was conducted in 900 mL of dissolution medium using a standard USP dissolution Apparatus 2 (paddle) operating at 100 RPM at 37±0.5° C. The dissolution medium was a 0.05 M sodium phosphate buffer pH 6.8 with 15 mM cTAB as a surfactant.

[5] = Solubility (general statement); type: physicochemical; details: aqueous
[6] = Human pharmacokinetic study, Example 4 Arm III (14-day multiple dose, steady state); type: in vivo
[7] = Regimen B (reference regimen): two Triple Tablets + one Single Tablet morning, one Single Tablet evening, N = 171
[8] = Formulation C5-12, Day 14 versus Day 1
[9] = human, in vivo, oral, 3 Formulation C5-12 tablets daily, three Formulation C5-12 tablets daily for 14 days, non-fasting, Day 14, N = 14
[10] = three Formulation C5-12 tablets daily for 14 days, non-fasting, Day 1, N = 14

SMILES: COC(=O)N[C@H](C(=O)N1CCC[C@H]1C(=O)Nc1ccc([C@@H]2CC[C@@H](c3ccc(NC(=O)[C@@H]4CCCN4C(=O)[C@@H](NC(=O)OC)C(C)C)cc3)N2c2ccc(C(C)(C)C)cc2)cc1)C(C)C [Compound 2]
- half-life ([1]; both sexes, human, blood, oral, 3 film-coated Formulation C5-12 tablets, Regimen A (C5-12): three film-coated Formulation C5-12 tablets, N = 172): 37.9 h
- AUC(0-t) ([1]; both sexes, human, blood, oral, 3 film-coated Formulation C5-12 tablets, Regimen A (C5-12): three film-coated Formulation C5-12 tablets, N = 172, read-out: AUCt, geometric mean): 1660 ng·h/mL
- AUC(0-inf) ([1]; both sexes, human, blood, oral, 3 film-coated Formulation C5-12 tablets, Regimen A (C5-12): three film-coated Formulation C5-12 tablets, N = 172, read-out: AUC∞, geometric mean): 1800 ng·h/mL
- Tmax ([1]; both sexes, human, blood, oral, 3 film-coated Formulation C5-12 tablets, Regimen A (C5-12): three film-coated Formulation C5-12 tablets, N = 172, read-out: Tmax, first value (geometric mean)): 5 h
- AUC(0-t) ([1]; both sexes, human, blood, oral, Regimen B (reference regimen): two Triple Tablets + one Single Tablet morning, one Single Tablet evening, N = 171, read-out: AUCt, geometric mean): 1630 ng·h/mL
- AUC(0-inf) ([1]; both sexes, human, blood, oral, Regimen B (reference regimen): two Triple Tablets + one Single Tablet morning, one Single Tablet evening, N = 171, read-out: AUC∞, geometric mean): 1760 ng·h/mL
- Tmax ([1]; both sexes, human, blood, oral, Regimen B (reference regimen): two Triple Tablets + one Single Tablet morning, one Single Tablet evening, N = 171, read-out: Tmax, first value (geometric mean)): 5 h
- Cmax, geometric mean ([1]; Regimen A (C5-12): three film-coated Formulation C5-12 tablets, N = 172): 124 ng/mL
- Cmax, geometric mean [1, 7]: 131 ng/mL
- t1/2 [1, 7]: 39.2 h
- Exposures versus the reference regimen [2]: bioequivalent
- Relative bioavailability, AUC24, point estimate [2]: 1.098
- Relative bioavailability, AUCt, point estimate [2]: 1.091
- Relative bioavailability, Cmax, point estimate [2]: 1.087
- AUCt, geometric mean ([3]; both): 1510 ng·h/mL
- AUC∞, geometric mean ([3]; both): 1670 ng·h/mL
- Cmax, geometric mean ([3]; both): 117 ng/mL
- Tmax ([3]; both): 5.2 h
- t1/2 ([3]; both): 23.2 h
- C24, arithmetic mean, % CV ([3]; both, 24 h): (19.4, 29) ng/mL
- C24, geometric mean ([3]; both, 24 h): 18.7 ng/mL
- AUCt, arithmetic mean, % CV [3]: (1560, 25) ng · h/mL
- AUC∞, arithmetic mean, % CV [3]: (1740, 29) ng · h/mL
- Cmax, arithmetic mean, % CV [3]: (122, 31) ng/mL
- Relative bioavailability, AUCinf, point estimate [3]: 1.022
- Relative bioavailability, Cmax, point estimate [3]: 1.038
- % Released ([4]; 1 hour, 900 mL 0.05 M sodium phosphate buffer pH 6.8, 15 mM cTAB, USP Apparatus 2, 100 RPM, 37 °C): 55%
- % Released ([4]; 4 hours, pH 6.8 buffer, 15 mM cTAB): 98%
- % Released ([4]; 6 hours, pH 6.8 buffer, 15 mM cTAB): 99%
- % Released ([4]; 8 hours, pH 6.8 buffer, 15 mM cTAB): 103%
- % Released ([4]; 12 hours, pH 6.8 buffer, 15 mM cTAB): 102%
- % Released ([4]; 16 hours, pH 6.8 buffer, 15 mM cTAB): 102%
- Solubility [5]: low solubility
- AUC24, RATIO [6, 8]: 1.34
- C24, RATIO [6, 8]: 1.72
- Cmax, RATIO [6, 8]: 1.10
- Tmax ([6]; human, in vivo, oral, 3 Formulation C5-12 tablets daily, three Formulation C5-12 tablets daily for 14 days, non-fasting, Day 1, N = 14): 5.5 h
- concentration at 24 h ([6]; human, in vivo, oral, 3 Formulation C5-12 tablets daily, three Formulation C5-12 tablets daily for 14 days, non-fasting, Day 1, N = 14, read-out: C24, geometric mean): 23.4 ng/mL
- Tmax [6, 9]: 5.6 h
- half-life [6, 9]: 29.8 h
- AUC ([6]; human, in vivo, oral, 3 Formulation C5-12 tablets daily, three Formulation C5-12 tablets daily for 14 days, non-fasting, Day 14, N = 14, read-out: AUC24, geometric mean): 1720 ng·h/mL
- concentration at 24 h ([6]; human, in vivo, oral, 3 Formulation C5-12 tablets daily, three Formulation C5-12 tablets daily for 14 days, non-fasting, Day 14, N = 14, read-out: C24, geometric mean): 40.2 ng/mL
- Cmax ([6]; human, in vivo, oral, 3 Formulation C5-12 tablets daily, three Formulation C5-12 tablets daily for 14 days, non-fasting, Day 14, N = 14, read-out: Cmax, geometric mean): 135 ng/mL
- AUC24, geometric mean [6, 10]: 1280 ng·h/mL
- Cmax, geometric mean [6, 10]: 123 ng/mL
- β ([6]; three Formulation C5-12 tablets daily for 14 days, non-fasting, Day 14, N = 14): 0.023 h⁻¹
